# In patent publication US20100210467A1, “AGENT FOR IMPROVING SUGARCANE BRIX AND METHOD OF PROMOTING SUGARCANE RIPENING USING THE SAME” (Kumiai Chemical Industry Co., Ltd., priority 2007, published 2010):
# How the values were obtained:
# Type in all cases: in vivo
# [1] = system: sugarcane; test: Example 2: sugar content of sugarcane stem juice after spraying from an aircraft, field test in Brazil; conditions: 50 g/ha; after 30 days of spraying
# Description: (§1) In accordance with “NORMAS DE AVALIAçÃO DA […] DA CANA-DE-AçÚCAR” used in Brazilian sugar refining plants as Standard for quality evaluation of sugarcane, the analysis on the sugar content in the squeezed juice of sugarcane stem was carried out for Brix value, sugar content in sugarcane (PC), and total sugar amount recoverable from sugarcane stem (ATR) as follows.
# (§2) Brix was measured according to a digital refractometer. PC was calculated according to the equation (1). ATR was calculated according to the equation (5).
# At the time the Brix value of sugarcane grown in a sugarcane cultivated area in Brazil (an average Brix value in the harvesttime being 21%) became 81% of the aforesaid average Brix value, a bispyribac-sodium formulation (a commercially available product, a tradename “NOMINEE 400SC”) was diluted with water so that the amount of the effective ingredient in 30 liters of the spraying liquid could be equal to the used amount shown in Table 3, and the liquid was sprayed over the test area from an air-craft at a rate of 30 liters per hectare.
# In a control area, a known fluazifop formulation (a commercially available product, a tradename “[…]”) was similarly sprayed.
# Next, 5 individual sugarcanes were cut from 5 locations in each area, i.e. 25 sugarcanes from each area, on the initial day of spraying and after 30 days of spraying, and thereafter the stems were squeezed and sugar was recovered from the juice to obtain the yield. The yield after 30 days of spraying was compared with the yield of the initial day of spraying and the rate of increase (%) was calculated. The analysis on the sugar content in the squeezed juice of sugarcane stems was carried out similarly as in the case of Example 1.
# [2] = system: sugarcane; test: Example 4: sugar content of sugarcane stem juice after pyribenzoxim back pack spraying, field test in Brazil
# Description: as §1, §2
# At the time the Brix value of sugarcane grown in a sugarcane cultivated area in Brazil (an average Brix value in the harvesttime being 20%) became 86% of the aforesaid average Brix value, a pyribenzoxim formulation (a tradename “PYANCHOR”) was diluted with water so that the amount of the effective ingredient in 105 liters of the spraying liquid could be equal to the used amount shown in Table 6, and the liquid was sprayed above the plant by the aid of a CO2-pressurized back pack sprayer to the test area at a rate of 105 liters per hectare.
# (§3) In a control area, a known sulfometuron-methyl formulation (a commercially available product, a tradename “CURAVIAL”) was similarly sprayed.
# (§4) Next, 20 individual sugarcanes were cut from each area on the initial day of spraying, after 15 days of spraying, after 30 days of spraying and after 45 days of spraying, and thereafter the stems were squeezed and sugar was recovered from the juice to obtain the yield. Each yield was compared with the yield of the initial day of spraying and the rate of increase (%) was calculated. The analysis on the sugar content in the squeezed juice of sugarcane stems was carried out similarly as in the case of Example 1.
# [3] = system: sugarcane; test: Example 3: sugar content of sugarcane stem juice after pyrimisulfan back pack spraying, field test in Brazil
# Description: as §1, §2
# At the time the Brix value of sugarcane grown in a sugarcane cultivated area in Brazil (an average Brix value in the harvesttime being 18%) became 88% of the aforesaid average Brix value, pyrimisulfan (pyrimisulfan prepared by a method disclosed in JP2000-44546A) was diluted with water so that the amount of the effective ingredient in 105 liters of the spraying liquid could be equal to the used amount shown in Table 4, and the liquid was sprayed above the plant by the aid of a CO2-pressurized back pack sprayer to the test area at a rate of 105 liters per hectare.
# as §3, §4
# [4] = system: sugarcane; test: Example 1: sugar content of sugarcane stem juice after power-sprayer application, field test in Brazil; conditions: 15 g/ha
# Description: With respect to sugarcane grown in a sugarcane cultivated area in Brazil (an average Brix value in the harvesttime being 18%), a juice was collected from 5 middle internodes selected at random in the sugarcane stem and the Brix value was measured according to a usual method. At the time the measured Brix value became 82% of the aforementioned average Brix value, a bispyribac-sodium formulation (a commercially available product, a tradename “NOMINEE 400SC”) was diluted with water so that the amount of the effective ingredient in 74 liters of the spraying liquid could be equal to the used amount shown in Table 1. The liquid was then sprayed above the plant by the aid of a power sprayer to a test area at a rate of 74 liters per hectare.
# as §3
# Next, 10 individual sugarcanes were cut from each area on the initial day of spraying, after 30 days of spraying and after 45 days of spraying, and thereafter the stem was squeezed and sugar was recovered from the juice to obtain the yield. Each yield was compared with the yield of the initial day of spraying and the rate of increase (%) was calculated.
# as §1, §2
# S denotes a sugar content in the extracted liquid and is calculated according to the equation (2). F denotes an amount of fibers in sugarcane and is calculated according to the equation (3). C denotes a conversion coefficient from the sugar content in the extracted liquid to an absolute amount and is calculated according to the equation (4).
# LAI denotes a measured value by the digital saccharimeter after clarification of the juice by a clarifying mixture made from aluminum.
# PBU denotes the mass of a wet bagasse exhausted from a pressing machine in the squeezed step of sugarcane stem.
# ARC denotes an amount of reducing sugar of sugarcane and is calculated from the following equation (6).
# AR denotes an amount of reducing sugar in the extracted liquid and is calculated from the following equation (7).
# [5] = system: sugarcane; test: Example 5: sugar content of sugarcane stem juice after bispyribac-sodium and/or gibberellin spraying, field test in Brazil
# Description: as §1, §2
# At the time the Brix value of sugarcane grown in a sugarcane cultivated area in Brazil (an average Brix value in the harvesttime being 18%) became 88% of the aforesaid average Brix value, a bispyribac-sodium formulation (a commercially available product, a tradename, “NOMINEE 400SC”) and a gibberellin formulation (a commercially available product, a tradename, “PRO-GIBB”) were admixed together and diluted with water or separately diluted with water so that the amount of the effective ingredient in 105 liters of each of the spraying liquids could be equal to the used amount shown in Table 8, and each liquid was sprayed above the plant by the aid of a CO2-pressurized back pack sprayer to the test area at a rate of 105 liters per hectare.
# as §3, §4
# [6] = 40 g/ha, after 15 days of spraying
# [7] = 40 g/ha, after 30 days of spraying
# [8] = 40 g/ha, after 45 days of spraying
# [9] = 15 g/ha, after 15 days of spraying
# [10] = 15 g/ha, after 30 days of spraying
# [11] = 15 g/ha, after 45 days of spraying
# [12] = 10 g/ha, after 15 days of spraying
# [13] = 10 g/ha, after 30 days of spraying
# [14] = 10 g/ha, after 45 days of spraying
compound,measurement,setting,value
"CC(Oc1ccc(Oc2ccc(C(F)(F)F)cn2)cc1)C(=O)O (stereo not drawn) [Fluazifop, fluazifop]",ATR increased rate from the initial day of spraying,[1],20.2%
same,Brix increased rate from the initial day of spraying,[1],18.1%
same,"Concentration of soluble solid matter, Brix",[1],20.5%
same,PC increased rate from the initial day of spraying,[1],22.0%
same,"Sugar content in sugarcane, PC",[1],15.1%
same,"Total sugar amount recoverable from 1 kg of stem, ATR",[1],146.0 g
"COc1cc(OC)nc(Oc2cccc(Oc3nc(OC)cc(OC)n3)c2C(=O)ON=C(c2ccccc2)c2ccccc2)n1 [Pyribenzoxim, pyribenzoxim]",ATR increased rate from the initial day of spraying,[2]; [6],14.2%
same,Brix increased rate from the initial day of spraying,[2]; [6],10.9%
same,"Concentration of soluble solid matter, Brix",[2]; [6],17.8%
same,"Total sugar amount recoverable from 1 kg of stem, ATR",[2]; [6],128.1 g
same,ATR increased rate from the initial day of spraying,[2]; [7],10.2%
same,Brix increased rate from the initial day of spraying,[2]; [7],9.1%
same,"Concentration of soluble solid matter, Brix",[2]; [7],17.5%
same,"Total sugar amount recoverable from 1 kg of stem, ATR",[2]; [7],123.6 g
same,ATR increased rate from the initial day of spraying,[2]; [8],22.0%
same,Brix increased rate from the initial day of spraying,[2]; [8],19.7%
same,"Concentration of soluble solid matter, Brix",[2]; [8],19.2%
same,"Total sugar amount recoverable from 1 kg of stem, ATR",[2]; [8],136.8 g
"COCc1cccc(C(O)c2nc(OC)cc(OC)n2)c1NS(=O)(=O)C(F)F (stereo not drawn) [Pyrimisulfan, pyrimisulfan]",ATR increased rate from the initial day of spraying,[3]; [6],5.5%
same,Brix increased rate from the initial day of spraying,[3]; [6],5.8%
same,"Concentration of soluble solid matter, Brix",[3]; [6],17.4%
same,"Total sugar amount recoverable from 1 kg of stem, ATR",[3]; [6],120.1 g
same,ATR increased rate from the initial day of spraying,[3]; [7],9.5%
same,Brix increased rate from the initial day of spraying,[3]; [7],7.6%
same,"Concentration of soluble solid matter, Brix",[3]; [7],17.7%
same,"Total sugar amount recoverable from 1 kg of stem, ATR",[3]; [7],124.6 g
same,ATR increased rate from the initial day of spraying,[3]; [8],12.6%
same,Brix increased rate from the initial day of spraying,[3]; [8],8.2%
same,"Concentration of soluble solid matter, Brix",[3]; [8],17.8%
same,"Total sugar amount recoverable from 1 kg of stem, ATR",[3]; [8],128.1 g
"COC(=O)c1ccccc1S(=O)(=O)NC(=O)Nc1nc(C)cc(C)n1 [Sulfometuron-methyl, sulfometuron-methyl]",ATR increased rate from the initial day of spraying,[4]; after 30 days of spraying,21.9%
same,Brix increased rate from the initial day of spraying,[4]; after 30 days of spraying,21.4%
same,"Concentration of soluble solid matter, Brix",[4]; after 30 days of spraying,19.2%
same,PC increased rate from the initial day of spraying,[4]; after 30 days of spraying,24.3%
same,"Sugar content in sugarcane, PC",[4]; after 30 days of spraying,13.9%
same,"Total sugar amount recoverable from 1 kg of stem, ATR",[4]; after 30 days of spraying,138.1 g
same,ATR increased rate from the initial day of spraying,[4]; after 45 days of spraying,31.2%
same,Brix increased rate from the initial day of spraying,[4]; after 45 days of spraying,29.6%
same,"Concentration of soluble solid matter, Brix",[4]; after 45 days of spraying,20.5%
same,PC increased rate from the initial day of spraying,[4]; after 45 days of spraying,35.1%
same,"Sugar content in sugarcane, PC",[4]; after 45 days of spraying,15.1%
same,"Total sugar amount recoverable from 1 kg of stem, ATR",[4]; after 45 days of spraying,148.7 g
same,ATR increased rate from the initial day of spraying,[3]; [9],1.7%
same,Brix increased rate from the initial day of spraying,[3]; [9],1.2%
same,"Concentration of soluble solid matter, Brix",[3]; [9],16.7%
same,"Total sugar amount recoverable from 1 kg of stem, ATR",[3]; [9],117.0 g
same,ATR increased rate from the initial day of spraying,[3]; [10],8.1%
same,Brix increased rate from the initial day of spraying,[3]; [10],6.4%
same,"Concentration of soluble solid matter, Brix",[3]; [10],17.6%
same,"Total sugar amount recoverable from 1 kg of stem, ATR",[3]; [10],124.5 g
same,ATR increased rate from the initial day of spraying,[3]; [11],−0.6%
same,Brix increased rate from the initial day of spraying,[3]; [11],−1.8%
same,"Concentration of soluble solid matter, Brix",[3]; [11],16.2%
same,"Total sugar amount recoverable from 1 kg of stem, ATR",[3]; [11],114.4 g
same,ATR increased rate from the initial day of spraying,[2]; [9],−3.2%
same,Brix increased rate from the initial day of spraying,[2]; [9],−5.4%
same,"Concentration of soluble solid matter, Brix",[2]; [9],16.5%
same,"Total sugar amount recoverable from 1 kg of stem, ATR",[2]; [9],120.1 g
same,ATR increased rate from the initial day of spraying,[2]; [10],9.9%
same,Brix increased rate from the initial day of spraying,[2]; [10],9.2%
same,"Concentration of soluble solid matter, Brix",[2]; [10],19.1%
same,"Total sugar amount recoverable from 1 kg of stem, ATR",[2]; [10],136.3 g
same,ATR increased rate from the initial day of spraying,[2]; [11],19.0%
same,Brix increased rate from the initial day of spraying,[2]; [11],17.2%
same,"Concentration of soluble solid matter, Brix",[2]; [11],20.5%
same,"Total sugar amount recoverable from 1 kg of stem, ATR",[2]; [11],147.6 g
same,ATR increased rate from the initial day of spraying,[5]; [9],1.7%
same,Brix increased rate from the initial day of spraying,[5]; [9],1.2%
same,"Concentration of soluble solid matter, Brix",[5]; [9],16.7%
same,"Total sugar amount recoverable from 1 kg of stem, ATR",[5]; [9],117.0 g
same,ATR increased rate from the initial day of spraying,[5]; [10],8.1%
same,Brix increased rate from the initial day of spraying,[5]; [10],6.4%
same,"Concentration of soluble solid matter, Brix",[5]; [10],17.6%
same,"Total sugar amount recoverable from 1 kg of stem, ATR",[5]; [10],124.5 g
same,ATR increased rate from the initial day of spraying,[5]; [11],−0.6%
same,Brix increased rate from the initial day of spraying,[5]; [11],−1.8%
same,"Concentration of soluble solid matter, Brix",[5]; [11],16.2%
same,"Total sugar amount recoverable from 1 kg of stem, ATR",[5]; [11],114.4 g
gibberellin,ATR increased rate from the initial day of spraying,[5]; [12],5.3%
same,Brix increased rate from the initial day of spraying,[5]; [12],5.5%
same,"Concentration of soluble solid matter, Brix",[5]; [12],17.2%
same,"Total sugar amount recoverable from 1 kg of stem, ATR",[5]; [12],120.5 g
same,ATR increased rate from the initial day of spraying,[5]; [13],11.7%
same,Brix increased rate from the initial day of spraying,[5]; [13],8.9%
same,"Concentration of soluble solid matter, Brix",[5]; [13],17.8%
same,"Total sugar amount recoverable from 1 kg of stem, ATR",[5]; [13],127.9 g
same,ATR increased rate from the initial day of spraying,[5]; [14],3.8%
same,Brix increased rate from the initial day of spraying,[5]; [14],3.1%
same,"Concentration of soluble solid matter, Brix",[5]; [14],16.8%
same,"Total sugar amount recoverable from 1 kg of stem, ATR",[5]; [14],118.8 g
